Assay results as given in article PMC5470982, “Thymoquinone exerts potent growth-suppressive activity on leukemia through DNA hypermethylation reversal in leukemia cells” (Oncotarget, 2017).

Biological target: T1, M. SssI (Spiroplasma monobiae, UniProt P15840)
T1 construct: gene sssIM
Test: in vitro DNA methylation assay with biotin/digoxigenin-labelled ds-oligonucleotide, HpaII cleavage and fluorescence readout
Format: biochemical

T1 sequence (P15840 whole entry, looked up): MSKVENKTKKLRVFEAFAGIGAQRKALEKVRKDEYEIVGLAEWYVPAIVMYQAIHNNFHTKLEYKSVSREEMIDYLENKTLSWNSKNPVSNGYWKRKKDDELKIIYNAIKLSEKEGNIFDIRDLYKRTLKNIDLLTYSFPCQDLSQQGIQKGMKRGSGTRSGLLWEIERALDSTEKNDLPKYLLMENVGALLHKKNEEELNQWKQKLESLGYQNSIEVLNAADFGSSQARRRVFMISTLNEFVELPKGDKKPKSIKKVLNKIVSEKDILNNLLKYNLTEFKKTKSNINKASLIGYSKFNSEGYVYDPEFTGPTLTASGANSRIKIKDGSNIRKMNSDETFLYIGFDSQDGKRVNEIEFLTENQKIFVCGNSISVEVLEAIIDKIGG

`CC1=CC(=O)C(C(C)C)=CC1=O` [TQ, thymoquinone] gave an IC50 of 30 nM.
